Assay results reported in US11116767B2, “3,5-disubstituted pyrazoles useful as checkpoint kinase 1 (Chk1) inhibitors, and their preparations and applications” (PHARMAENGINE, INC., priority 2016, dated 2021).

Assays:
[1] = Human liver S9 metabolic stability; assay type: in vitro ADME; details: for Percentage Remaining %: 1 μM, 37° C.
Procedure: Compounds (1 μM) were incubated with human liver S9 (from BD Gentest) at final liver microsomal protein concentration of 0.5 mg/mL for 0, 5, 15, 30, 45 min at 37° C. The remaining compounds in the reaction were measured by LC-MS/MS. The half-life (T½) 0.693/K (K is the rate constant from a plot of ln [concentration] vs. incubation time).

[2] = test system: LoVo colon cancer xenograft; experiment: LoVo colon xenograft model; assay type: in vivo, Balb/c nude mice
Procedure: (§1) Female Balb/c nude mice at 7-8 weeks of age (Body weights between 17-18g) were purchased from Hunan SJA Laboratory Animal Co., Ltd. HT-29 cells were cultured in DMEM culture medium containing 10% fetal bovine serum and LoVo cells were cultured in RPMI 1640 culture medium containing 10% fetal bovine serum. The cells were harvested and washed with serum free culture medium. Finally, the cells were suspended at a cell density of […] in serum free culture medium for implantation. 5 million cells per animal suspended in 0.1 ml serum free culture medium and 1.1 matrigel were injected into the right flank of the animals after a one, week acclimation period. When average tumor volume reached acceptable tumor size (100-200 mm^3) and shape, the animals were randomly assigned into treatment groups.
Lovo colon cancer cells were implanted to establish the xenograft model in Balb/c nude mice. Compound 3 and LY2606368 were dissolved in 30% SEB-β-CD (Zhiyuan Bio-technology) with 1 molar equivalents of HCl. […]

[3] = test system: HT-29 tumor xenograft; experiment: HT-29 xenograft model, alone or in combination with CPT-11; assay type: in vivo, Balb/c nude mice; details: for % T/C value: 40 mg/kg, IV
Procedure: as §1
In HT-29 tumor xenograft model, the animals were treated with a single compound, a ChK1 inhibitor or CPT-11, or a combination with CPT11. […] The animals well tolerated each treatment in the HT-29 colon cancer in nude mice model.

[4] = test system: HT-29 colon cancer xenograft; assay type: in vivo
Procedure: as §1
HT-29 colon cancer cells were implanted to establish the xenograft model in Balb/c nude mice. Compound 3 and LY2606368 were dissolved in 30% SEB-β-CD (Zhiyuan Bio-technology) with 1 molar equivalents of HCl. GDC-575 was suspended in 0.5% methyl cellulose/0.1% Tween 80 in water. […]. The animals well tolerated each treatment in the HT-29 colon cancer in nude mice model.

[5] = test system: ChK1 phosphorylation (pChK1 S296) in HT-29 colon cancer cells; experiment: Western blot analysis of ChK1 phosphorylation in HT-29 cells with SN-38; assay type: cell-based, Human; details: HT-29 cells pre-incubated with SN-38 (50 nM) 24 hours, then ChK1 inhibitor 3 hours
[6] = biological target: T1, Chk1 (Homo sapiens, UniProt O14757); experiment: biochemical; details: ADP-Glo; read-out: Chk1 in vitro enzyme activity (grade)
T1 construct: purchased BPS 40039
T1 sequence (O14757 1-476): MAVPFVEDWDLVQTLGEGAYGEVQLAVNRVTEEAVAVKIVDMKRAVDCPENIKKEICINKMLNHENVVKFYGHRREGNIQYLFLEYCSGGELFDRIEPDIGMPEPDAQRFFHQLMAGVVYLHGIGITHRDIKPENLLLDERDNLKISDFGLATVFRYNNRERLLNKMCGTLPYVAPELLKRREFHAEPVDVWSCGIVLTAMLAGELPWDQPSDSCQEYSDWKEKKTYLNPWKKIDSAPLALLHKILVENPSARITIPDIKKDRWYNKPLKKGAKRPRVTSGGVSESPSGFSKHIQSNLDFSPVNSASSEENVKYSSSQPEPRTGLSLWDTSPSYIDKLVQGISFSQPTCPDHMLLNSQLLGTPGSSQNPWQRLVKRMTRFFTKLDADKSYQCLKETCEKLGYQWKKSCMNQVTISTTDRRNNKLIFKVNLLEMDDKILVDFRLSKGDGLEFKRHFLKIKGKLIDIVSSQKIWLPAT

[7] = test system: MDA-MB-231; experiment: Cancer cell growth inhibition assay (CellTiter-Glo), MDA-MB-231; assay type: cell-based, Human; details: Homo sapiens, MDA-MB-231; 72 hours, cellular ATP content; read-out: MDA-MB-231 anti cell proliferation activity (grade)
[8] = in vivo; set-up: species or system Balb/c nude mice; details: mouse, iv, 40 mg/kg
Procedure: as §1
Compound 3 was selected for further PK studies in tumor bearing mice. HT-29 colon cancer cells were implanted to establish the xenograft model in Balb/c nude mice. Twenty-four mice were divided into 8 time groups with n=3/group. Compound 3 was dissolved in 30% SEB-β-CD (Zhiyuan Bio-technology) with 1 molar equivalents of HCl. Each animal was dosed via intravenous administration of Compound 3 at 40 mg/kg. Blood and tumors were collected at various time points after mice were euthanized with CO2. Blood samples were centrifuged at 4° C. immediately after collection. The supernatants were transferred to 1.5 mL of Eppendorf vials as soon as possible and stored at −80° C. in a freezer. Tumor samples were collected and placed in dry ice until transferred to a −80° C. freezer for bioanalysis.

COc1cc(F)cc(OCCCN)c1-c1cc(Nc2cnc(C#N)cn2)n[nH]1 [Compound 3, 5-(5-(2-(3-Aminopropoxy)-4-fluoro-6-methoxyphenyl)-1H-pyrazol-3-ylamino)pyrazine-2-carbonitrile]
Percentage Remaining % ([1]; 0 min): 100.00%
Percentage Remaining % ([1]; 5 min): 96.98%
Percentage Remaining % ([1]; 15 min): 94.32%
Percentage Remaining % ([1]; 30 min): 65.38%
Percentage Remaining % ([1]; 45 min): 77.05%
metabolic stability compared with LY2606368 ([1]; human liver S9): more metabolic stable than LY2606368
half-life at 1 μM ([1]; human liver S9, 1 μM): 2.76 h
T/C value ([2]; 40 mg/kg, IV, twice a week): −77%
tumor growth inhibition ([2]; LY2606368 15 mg/kg, Compound 3 10, 20, 40 mg/kg, IV, twice a week): significant tumor growth inhibition in a dose-dependent manner
efficacy compared with LY2606368 at MTD dose ([2]; MTD dose): more efficacious than LY2606368
efficacy compared with LY-2606368, alone or with CPT-11 ([3]; 40 mg/kg IV twice a week vs LY-2606368 15 mg/kg IV twice a week): more efficacious than the reference LY-2606368
% T/C value ([3]; twice a week plus CPT-11 (50 mg/kg, IV, once per week)): −9%
% T/C value ([3]; alone, twice a week): 26%
effect on anti-tumor growth activity of CPT11 ([3]; combination with CPT11): enhanced anti-tumor growth activity of CPT11
T/C value ([4]; 40 mg/kg, iv, 2 times/week): 31%
Tumor volume (X ± SD) ([4]; 40 mg/kg, iv, 2 times/week): 407 ± 17 mm^3
Tumor weight (X ± SD) ([4]; 40 mg/kg, iv, 2 times/week): 272 ± 16 mg
efficacy compared with references at their MTD ([4]; mouse, in vivo): more efficacious than the reference LY-2606368
inhibition of ChK1 phosphorylation (FIG. 2) [5]: potently inhibited ChK1 phosphorylation
IC50 [6]: ≤ 0.001 µM
IC50 [7]: 0.05 to 0.1 µM
Kp ([8]; female, Balb/c nude): ~6
half-life ([8]; female, Balb/c nude, half-life in blood): 6.1 h
half-life ([8]; female, Balb/c nude, half-life in tumor tissues): 14 h
distribution into tumor tissues [8]: rapidly distributed into tumor tissues
